The results in this text go back to US7501417B2, “Aminocarbonyl-derivatives as novel inhibitors of histone deacetylase” (Janssen Pharmaceutica, N.V., priority 2002, dated 2009).

In brackets after ≈: the same amount, converted by molar mass.

Data set [1] has as its system A2780 ovarian carcinoma cells. Description: Determination of antiproliferative activity on A2780 cells (MTT). The data set is classed as cell-based. Conditions: Homo sapiens, 96 h, four days of incubation, read-out: Cellular activity pIC50 (converted). On the procedure: Cellular activity of the compounds of formula (I) was determined on A2780 tumour cells using a colorimetric assay for cell toxicity or survival (Mosmann Tim, Journal of Immunological Methods 65: 55-63, 1983)(see example C.2).
All compounds tested were dissolved in DMSO and further dilutions were made in culture medium. Final DMSO concentrations never exceeded 0.1% (v/v) in cell proliferation assays. Controls contained A2780 cells and DMSO without compound and blanks contained DMSO but no cells. MTT was dissolved at 5 mg/ml in PBS. A glycine buffer comprised of 0.1 M glycine and 0.1 M NaCl buffered to pH 10.5 with NaOH (1 N) was prepared (all reagents were from Merck).
The human A2780 ovarian carcinoma cells (a kind gift from Dr. T. C. Hamilton [Fox Chase Cancer Centre, Pennsylvania, USA]) were cultured in RPMI 1640 medium supplemented with 2 mM L-glutamine, 50 μg/ml gentamicin and 10% fetal calf serum. Cells were routinely kept as monolayer cultures at 37° C. in a humidified 5% CO2 atmosphere. Cells were passaged once a week using a trypsin/EDTA solution at a split ratio of 1:40. All media and supplements were obtained from Life Technologies. Cells were free of mycoplasma contamination as determined using the Gen-Probe Mycoplasma Tissue Culture kit (supplier: BioMérieux).
Cells were seeded in NUNC™ 96-well culture plates (Supplier: Life Technologies) and allowed to adhere to the plastic overnight. Densities used for plating were 1500 cells per well in a total volume of 200 μl medium. After cell adhesion to the plates, medium was changed and drugs and/or solvents were added to a final volume of 200 μl. Following four days of incubation, medium was replaced by 200 μl fresh medium and cell density and viability was assessed using an MTT-based assay. To each well, 25 μl MTT solution was added and the cells were further incubated for 2 hours at 37° C. The medium was then carefully aspirated and the blue MTT-formazan product was solubilized by addition of 25 μl glycine buffer followed by 100 μl of DMSO. […] Within an experiment, the results for each experimental condition are the mean of 3 replicate wells. For initial screening purposes, compounds were tested at a single fixed concentration of 10^−6 M. For active compounds, the experiments were repeated to establish full concentration-response curves. For each experiment, controls (containing no drug) and a blank incubation (containing no cells or drugs) were run in parallel. The blank value was subtracted from all control and sample values. For each sample, the mean value for cell growth (in absorbance units) was expressed as a percentage of the mean value for cell growth of the control. […] Herein the effects of test compounds are expressed as pIC50 (the negative log value of the IC50-value).

Data set [2] can be described thus: Kinetic solubility in aqueous media (nephelometry). Format: physicochemical. To be noted: aqueous buffer, kinetic from dmso stock; phosphate citrate buffer pH 7.4, turbidity of three dilution steps; read-out: Solubility Score. Here is the method:
Kinetic solubility in aqueous media measures the ability of a compound to stay in aqueous solution upon dilution (see example C.3).
DMSO-stock solutions are diluted with a single aqueous buffer solvent in 3 consecutive steps. For every dilution turbidity is measured with a nephelometer.
In the first dilution step, 10 μl of a concentrated stock-solution of the active compound, solubilized in DMSO (5 mM), was added to 100 μl phosphate citrate buffer pH 7.4 and mixed. In the second dilution step, an aliquot (20 μl) of the first dilution step was further dispensed in 100 μl phosphate citrate buffer pH 7.4 and mixed. Finally, in the third dilution step, a sample (20 μl) of the second dilution step was further diluted in 100 μl phosphate citrate buffer pH 7.4 and mixed. All dilutions were performed in 96-well plates. Immediately after the last dilution step the turbidity of the three consecutive dilution steps were measured with a nephelometer. Dilution was done in triplicate for each compound to exclude occasional errors. Based on the turbidity measurements a ranking is performed into 3 classes. Compounds with high solubility obtained a score of 3 and for this compounds the first dilution is clear. Compounds with medium solubility obtained a score of 2. For these compounds the first dilution is unclear and the second dilution is clear. […] The solubility of 3 compounds was measured.

The target of data set [3] is HDAC (HeLa nuclear extracts). Description: In vitro assay for inhibition of histone deacetylase. Format: biochemical. Conditions: [3H]acetylated histone H4 peptide substrate. Here is the method:
The in vitro assay for inhibition of histone deacetylase (see example C.1) measures the inhibition of HDAC enzymatic activity obtained with the compounds of formula (I).
HeLa nuclear extracts (supplier: Biomol) were incubated at 60 μg/ml with 2×10^−8 M of radiolabeled peptide substrate. As a substrate for measuring HDAC activity a synthetic peptide, i.e. the amino acids 14-21 of histone H4, was used. The substrate is biotinylated at the NH2-terminal part with a 6-aminohexanoic acid spacer, and is protected at the COOH-terminal part by an amide group and specifically [^3H]acetylated at lysine 16. The substrate, biotin-(6-aminohexanoic)Gly-Ala-([^3H]-acetyl-Lys-Arg -His-Arg-Lys-Val-NH2), was added in a buffer containing 25 mM Hepes, 1 M sucrose, 0.1 mg/ml BSA and 0.01% Triton X-100 at pH 7.4. After 30 min the deacetylation reaction was terminated by the addition of HCl and acetic acid. (final concentration 0.035 mM and 3.8 mM respectively). After stopping the reaction, the free ^3H-acetate was extracted with ethylacetate. After mixing and centrifugation, the radioactivity in an aliquot of the upper (organic) phase was counted in a β-counter.
For each experiment, controls (containing HeLa nuclear extract and DMSO without compound), a blank incubation (containing DMSO but no HeLa nuclear extract or compound) and samples (containing compound dissolved in DMSO and HeLa nuclear extract) were run in parallel. In first instance, compounds were tested at a concentration of 10^−5M. […] In each test the blank value was subtracted from both the control and the sample values. The control sample represented 100% of substrate deactylation. For each sample the radioactivity was expressed as a percentage of the mean value of the controls. […] Herein the effects of test compounds are expressed as pIC50 (the negative log value of the IC50-value).

Broadly, the solubility is the dissolved amount per volume that the medium holds. For `Cc1ccc(NC(=O)N2CCN(c3ccc(C(=O)NO)cc3)CC2)cc1` [Co. No. 1], the IC50 in data set [1] is 4700 nM. The solubility in data set [2] is under 75.8 µM. Besides, the “Enzyme activity pIC50” value in data set [3] is 6.754.

For `Cc1ccc(NC(=O)N2CCN(c3ccc(C(=O)NCCO)cc3)CC2)cc1` [Co. No. 2], the IC50 in data set [1] is over 10000 nM. Moreover, the “Enzyme activity pIC50” value in data set [3] was under 5.

On to `Cc1ccc(NC(=O)N2CCN(c3ccc(NC(=O)CS)cc3)CC2)cc1` [Co. No. 3], for which, in data set [1], the IC50 was over 10000 nM. Besides, in data set [3], the “Enzyme activity pIC50” value came out at 5.332.

For the compound `O=C(NO)c1cnc(N2CCN(C(=O)N(c3ccccc3)c3ccccc3)CC2)nc1` [Co. No. 4], the IC50 in data set [1] is 769 nM. The “Enzyme activity pIC50” value in data set [3] was 7.127.

A word on the melting point: it is the temperature, or range, at which the solid turns liquid. With `O=C(NCC1CCN(c2ncc(C(=O)NO)cn2)CC1)Nc1ccc(-c2ccccc2)cc1` [Co. No. 5], the melting point was over 260 °C. In addition, the IC50 in data set [1] was 711 nM. Besides, the solubility in data set [2] is 75.8 to 454 µM (≈ 33.8 to 203 µg/mL). In data set [3], the “Enzyme activity pIC50” value is reported as 7.65.

As to `O=C(NO)c1cnc(N2CCN(C(=O)Nc3ccc(-c4ccccc4)cc3)CC2)nc1` [Co. No. 6], the melting point is over 260 °C. Further, the IC50 in data set [1] was 277 nM. The solubility in data set [2] is over 454 µM. The “Enzyme activity pIC50” value in data set [3] worked out at 7.728.

As to `Cc1cccc(C)c1NC(=O)N1CCN(c2ccc([N+](=O)[O-])cc2C(=O)NO)CC1` [compound 30], the “Enzyme activity pIC50” value in data set [3] is over 5.

Take `CN(C(=O)N1CCN(c2ncc(C(=O)NO)cn2)CC1)c1ccccc1` [compound 48]: the IC50 in data set [1] is 723 nM. In addition, the “Enzyme activity pIC50” value in data set [3] stood at 7.163.
